In patent US20250281414A1, “HIGH DOSE ENDOXIFEN FORMULATIONS AND METHODS OF USE” (Atossa Therapeutics, Inc., priority 2022, published 2025):
≈ marks a conversion by molar mass, not a printed value.

Key:
[1] = pH-dependent solubility of (Z)-endoxifen; format: physicochemical; details: for solubility: read-out: Solubility Z-form
Protocol: This example describes pH-dependent solubility of (Z)-endoxifen. (Z)-endoxifen was dissolved in solution under different pH conditions, and the solubility was measured. Since (Z)-endoxifen converts to the E-form under acidic conditions, the solubility of (Z)-endoxifen and (E)-endoxifen were measured independently, and a ratio of Z-form to E-form was determined.

[2] = Solubility of (Z)-endoxifen at pH 6.8 with and without Polysorbate 80; format: physicochemical
Protocol: This example describes development of a dissolution assay to measure dissolution of endoxifen formulations. Since solubility of endoxifen decreases as pH becomes less acidic, as shown in EXAMPLE 1, additional experiments were performed to improve solubility of endoxifen in the pH 6.8 buffer solution. Polysorbate 80 (PS80), a nonionic surfactant, was added in varying concentrations to improve solubility and mimic an intestinal environment. Surfactants, such as polysorbate 80, create micelles in the medium that mimic the bile acid aggregates in the small intestine. These micelles facilitate the diffusion and transport of product into the medium.

Z-form to E-form equilibration ([1]; pH 6.8): below the limit of detection | solubility ([1]; solution at pH 1.2, pH 1.2, simulated gastric fluid): 1050 µg/mL (≈ 2800 µM) | solubility ([1]; solution at pH 4.5, pH 4.5, aqueous buffer): 250 µg/mL (≈ 668 µM) | solubility ([1]; solution at pH 5.0, pH 5, aqueous buffer): 203 µg/mL (≈ 543 µM) | solubility ([1]; solution at pH 5.5, pH 5.5, aqueous buffer): 43.5 µg/mL (≈ 116 µM) | solubility ([1]; solution at pH 6.0, pH 6, aqueous buffer): 27.8 µg/mL (≈ 74.4 µM) | solubility ([1]; solution at pH 6.8, pH 6.8, aqueous buffer): 4.26 µg/mL (≈ 11.4 µM) | solubility ([1]; water): 0.78 µg/mL (≈ 2.09 µM) | solubility ([2]; aqueous buffer, pH 6.8 Buffer (Control), no Polysorbate 80): 8.14 µg/mL (≈ 21.8 µM) | solubility ([2]; pH 6.8 buffer with 0.5% Polysorbate 80, pH 6.8, aqueous with cosolvent or surfactant or cyclodextrin): 58.3 µg/mL (≈ 156 µM) | solubility ([2]; pH 6.8 buffer with 1.0% Polysorbate 80, pH 6.8, aqueous with cosolvent or surfactant or cyclodextrin): 62.1 µg/mL (≈ 166 µM)
Compound: CC/C(=C(\c1ccc(O)cc1)c1ccc(OCCNC)cc1)c1ccccc1 [(Z)-endoxifen]
